Experimental findings from article PMC6042386, “Molecular diversity and function of jasmintides from Jasminum sambac” (BMC Plant Biology, 2018) are described below.

In data set [1] the test system is carboxypeptidase A. In words: Enzymatic stability assay, exopeptidase carboxypeptidase A. It counts as in vitro ADME. Particulars: 37 °C, manufacturer's buffer, up to 6 h, quenched with 1 M hydrochloric acid, UPLC peak area, MALDI-MS, three independent experiments, mean (n = 3), read-out: jS3 remaining intact with carboxypeptidase A. The procedure: (§1) For the thermal stability assay, jS3 were heated in boiling water for 1 h. At each time interval (1.0 h), a 30-μL sample was aliquoted and quenched in an ice bath for 15 min. For the acid stability assay, jS3 and jS4 were incubated in hydrochloric acid (pH 2.0) for 6 h. At each time interval (2, 4 and 6 h), a 30-μL sample was aliquoted and quenched by adding 1 M sodium hydroxide. For the enzymatic stability assay, jS3 and jS4 were incubated for 6 h at the optimal temperature with a buffer solution, as recommended by the manufacturer. At each time interval (2, 4 and 6 h), a 30-μL sample was aliquoted and quenched by adding 1 M hydrochloric acid. For the serum stability assay, jS3 were incubated with 25% human AB-type male serum in phenol red-free Dulbecco’s modified Eagle’s medium at 37 °C for 24 h. At each time interval (4, 8, 12 and 24 h), a 30-μL sample was aliquoted and quenched with 96% ethanol. Samples were kept at 4 °C for 15 min and then centrifuged at 18,000 rpm for 10 min. For all stability assays, the reaction mixture was analyzed by UPLC and monitored by MALDI-MS. The areas under the peak prior to and after treatment were integrated to determine stability. For each stability assay, three independent experiments were performed. At each time point, the sample was quenched by the specific reagent aforementioned and analyzed by UPLC in triplicates.

For data set [2], the system named is trypsin. In words: Enzymatic stability assay, endopeptidase trypsin. Type of data set: in vitro ADME. The conditions noted are these: 37 °C, manufacturer's buffer, up to 6 h, quenched with 1 M hydrochloric acid, UPLC peak area, MALDI-MS, three independent experiments, mean (n = 3), read-out: jS3 remaining intact with trypsin. As for the experimental part:
as §1

Data set [3] deals with Tenebrio molitor mealworm larvae. In words: Feeding deterrent no-choice assay. Type of data set: in vivo. Particulars: 24 h, 29 ± 1 °C in the dark, 30 larvae per concentration. As for the experimental part:
The antifeedant activity was examined using a no-choice assay. Oat flakes were soaked in different concentrations of jS3 (0.5 to 30 mg/g of oat) and lyophilized. The control diet was prepared in the same manner without addition of jS3. Ten T. molitor larvae of similar weights (41 ± 3 mg) were placed in a tissue culture dish with 500 mg of oats. The dishes were transferred into a rearing chamber and kept at 29 ± 1 °C in the dark. After 24 h, the remaining oat flakes were weighed, and the amount consumed was calculated. In total, 30 larvae were used for each concentration, and three independent biological experiments were performed. The feeding deterrence activity was determined as follows: Feeding Deterrence IndexFDI=C−T∗100/C+T
where C represents the average weight of consumed control diet and T represents the average weight of consumed treatment diet within the groups. The overall differences in feeding amounts were compared to the control and were compared to each other using one-way ANOVA.

In data set [4] the test system is insect Sf9 cells. In words: Co-incubation of insect Sf9 cells with jS3 (morphology, mortality). Type of data set: cell-based. Particulars: concentrations up to 100 μM, co-incubation (Figure S6).
A short description of data set [5]: Acid stability assay (hydrochloric acid, pH 2.0). It counts as physicochemical. Particulars: hydrochloric acid pH 2.0, 37 °C, up to 6 h; quenched with 1 M sodium hydroxide; UPLC peak area, MALDI-MS; three independent experiments, mean (n = 3); read-out: jasmintide remaining under acidic conditions. The procedure:
as §1

Data set [6] in a line: Human serum stability assay. It counts as in vitro ADME. The conditions noted are these: 25% human AB-type serum; 25% human AB-type male serum in phenol red-free DMEM, 37 °C, up to 24 h; quenched with 96% ethanol; UPLC peak area, MALDI-MS; three independent experiments, mean (n = 3); read-out: jS3 remaining intact after incubation with human serum. The procedure:
as §1

In data set [7] the test system is T. molitor larvae. In words: Effect of jasmintide on the growth of larvae. It counts as in vivo, Tenebrio molitor. The procedure:
At day 0, 10 T. molitor larvae of similar weights (43 ± 2 mg and 47 ± 2 mg in the treatment and control sets, respectively) were fed 200 mg of a diet containing 1 mg of jS3/g of oats. Every three days, the weights of individual larva were recorded, and larvae were transferred to a new dish with the same amount of supplemented diet to maintain a continuous supply. Three independent biological experiments were carried out over a period of 9 days. The control diet was prepared in the same manner without the addition of jS3. Student’s t-test was used to compare the mean with the control.

The nature of data set [8]: Thermal stability assay (boiling water). Particulars: boiling water (100 °C), quenched in ice bath 15 min, UPLC peak area before/after, monitored by MALDI-MS, three independent experiments, mean (n = 3), read-out: jasmintide remaining after thermal treatment. Type of data set: physicochemical. The procedure:
as §1

Where a SMILES comes first, the peptide text is derived from it. Bridges are numbered along the chain shown (N, C = ends). [ ]: non-standard residue; d: D form. pGlu = O=C1CC[C@@H](C(=O)O)N1

Consider `CC[C@H](C)[C@H](NC(=O)[C@H](CC(N)=O)NC(=O)[C@@H]1CSSC[C@@H]2NC(=O)[C@H](CC(=O)O)NC(=O)[C@H](CCCNC(=N)N)NC(=O)[C@H](CO)NC(=O)[C@H]([C@@H](C)O)NC(=O)[C@H](CCC(N)=O)NC(=O)[C@@H]3CSSC[C@H](NC(=O)[C@H](C(C)C)NC(=O)[C@H]([C@@H](C)O)NC(=O)[C@H](Cc4c[nH]c5ccccc45)NC(=O)[C@H]([C@@H](C)CC)NC(=O)[C@H]([C@@H](C)CC)NC(=O)[C@H](Cc4ccc(O)cc4)NC(=O)[C@H](CC(N)=O)NC2=O)C(=O)N[C@@H](CCCNC(=N)N)C(=O)N[C@@H](CC(=O)O)C(=O)NCC(=O)N[C@@H](CSSC[C@H](NC(=O)[C@H](CC(C)C)NC(=O)[C@@H]2CCC(=O)N2)C(=O)N[C@@H](CC(C)C)C(=O)N[C@@H](CC(C)C)C(=O)N3)C(=O)N1)C(=O)N[C@@H](CO)C(=O)O` [jS3] ([pGlu]LCLLCQTSRDCNYIIWTVCRDGCCNIS-OH; disulfide 3-24, 6-20, 12-25; C-terminus assumed), for which the figures for the fraction remaining at 6 h in data set [1], in data set [2] and in data set [5] were greater than 80%, greater than 80% and greater than 90%, respectively. The “feeding deterrence index (FDI)” value turned out to be 42.9% in data set [3] (1 mg/g of jasmintide in the diet (oat flakes), three independent experiments) and 93.6% in data set [3] (30 mg/g of jasmintide in the diet (oat flakes), highest value). Further, the “change in morphology and mortality rate of Sf9 cells” value in data set [4] is on record as “insignificant effects”. Besides, the amount remaining (commonly what is left of the initial amount, in per cent) at 24 h in data set [6] is greater than 79%. For the same compound, the “average body weight of the treatment group after nine-day treatment” value in data set [7] (after nine days on diet containing 1 mg of jS3 per gram of oat flakes, n = 30 larvae, significantly less than control (47.4 to 71.2 mg)) is 62.2 mg. Further, the “average body weight of the treatment group, start” value in data set [7] (day 0, diet containing 1 mg of jS3 per gram of oat flakes, n = 30 larvae) amounted to 44.3 mg. Besides, the “fatality of larvae during the period of treatment” value in data set [7] (nine-day treatment, 1 mg of jS3 per gram of oat flakes) was “No fatality”. In addition, the share remaining at 1 h in data set [8] was greater than 92%.
